Assay results taken from ChEMBL document CHEMBL4602682, “Ikoamide, an Antimalarial Lipopeptide from an Okeania sp. Marine Cyanobacterium” (J Nat Prod, 2020).

Columns and labels:
[1] = tested on: HeLa; experiment: Cytotoxicity against human HeLa cells at 10 uM incubated for 72 hrs by MTT assay; assay type: cell-based
[2] = tested on: HL-60; experiment: Cytotoxicity against human HL60 cells at 10 uM incubated for 72 hrs by MTT assay; assay type: cell-based; conditions: hl-60, 72 h
[3] = tested on: Plasmodium falciparum; experiment: Antiplasmodial activity against asexual erythrocytic stage of Plasmodium falciparum 3D7 assessed as reduction in parasite growth after 72 hrs by LDH assay; assay type: functional, organism-based; conditions: 3D7, 72 h
[4] = tested on: HL-60; experiment: Cytotoxicity against human HL60 cells incubated for 72 hrs by MTT assay; assay type: cell-based; conditions: HL-60, 72 h

## CCC[C@H](C[C@@H](CC(=O)N(C)[C@@H](C(=O)N[C@H](CO)C(=O)N[C@H](CC(C)C)C(=O)N(C)[C@@H](CC(C)C)C(=O)N[C@H](C(=O)N(C)[C@H](C(=O)N(C)[C@@H](CCC(N)=O)C(=O)N(C)[C@@H](Cc1ccc(OC)cc1)C(=O)OC)[C@@H](C)CC)[C@@H](C)O)[C@@H](C)CC)OC)OC
[1]
  Activity: Non-Toxic
[2]
  Activity: Non-Toxic
[3]
  IC50: 140 nM

## COc1cccc2c1C(=O)c1c(O)c3c(c(O)c1C2=O)C[C@@](O)(C(=O)CO)C[C@@H]3O[C@H]1C[C@H](N)[C@H](O)[C@H](C)O1 [DOXORUBICIN]
[4]
  IC50: 46 nM
